# Results: US8048880B2, “Treatment of cardiovascular disease and dyslipidemia using secretory phospholipase A2 (SPLA2) inhibitors and SPLA2 inhibitor combination therapies” (Anthera Pharmaceuticals, Inc., priority 2007, dated 2011)
# Key:
# [1] = system: CRP; assay: Serum CRP concentration in humans, A-002 twice a day (Example 4); type: in vivo, human; details: week 8
# Protocol: (§1) 204 human subjects from the United States with CVD, specifically stable coronary artery disease, were randomized to receive placebo or A-002 via oral administration twice a day over an eight week administration period at dosages of 50 mg, 100 mg, 250 mg, or 500 mg. Levels of various lipids and inflammatory markers were measured at the outset of the trial and at the end of weeks four and/or eight. For data sets with a normal distribution, mean levels of lipids or inflammatory markers were analyzed. For data sets with non-normal distribution, median levels were analyzed. […] In addition, administration of A-002 decreased median levels of CRP (Table 11).
# Serum TG, CRP, and IL-6 levels were measured at eight weeks in 86 subjects from the ITT population diagnosed with metabolic syndrome.
# [2] = system: human subjects with CVD, specifically stable CAD; assay: Serum lipid levels and LDL particle size in humans, A-002 once a day for eight weeks (Example 6); type: in vivo; details: for % change vs. baseline (mean LDL particle size) / % change vs. baseline (mean [non-HDL cholesterol]) / % change vs. baseline (mean [total cholesterol]) / % change vs. baseline (median [ApoB]) / % change vs. baseline (median [TG]) / % change vs. baseline (median [oxidized LDL]) / % change vs. baseline (median [small LDL particle]) / Change in mean LDL particle size vs. baseline / Change in mean [non-HDL cholesterol] vs. baseline / Change in mean [total cholesterol] vs. baseline / Change in median [ApoB] vs. baseline / Change in median [TG] vs. baseline / Change in median [oxidized LDL] vs. baseline / Change in median [small LDL particle] vs. baseline / % change vs. baseline (mean [LDL]) / Change in mean [LDL] vs. baseline: week 8
# [3] = Body weight of ApoE−/− mice on high fat diet during 16 weeks of A-002 (Example 1); type: in vivo; details: oral gavage
# Protocol: Male ApoE^−/− mice were fed a high fat diet (21% fat, 0.15% cholesterol, 19.5% casein) ad libitum for two weeks in order to acclimate to the diet. Plasma cholesterol levels and body weight were measured in order to obtain baseline levels, and mice were randomized into three groups of 20 mice based on these measurements. After the acclimation period, mice remained on the high fat diet and were administered A-002 (30 mg/kg or 90 mg/kg) or vehicle only (5% acacia) twice a day for 16 weeks by oral gavage.
# Plasma cholesterol levels and body weight were measured at 4, 8, 12, and 16 weeks after the start of A-002 administration. Comparisons of measurements between test and control mice at each time period were performed using a two-way analysis of variance test (ANOVA) for repeated measures, followed by post-hoc Bonferroni test for significance.
# [4] = system: human subjects with CVD, specifically stable coronary artery disease; assay: Serum lipid levels in humans, A-002 twice a day for eight weeks (Example 4); type: in vivo
# Protocol: as §1
# The combined effect of A-002 and statin administration on LDL levels was tested in a population of 332 subjects. This population consisted of the original 204 United States subjects, plus an additional 128 subjects from the Ukraine with stable CAD that received placebo or A-002 based according to the same protocol as the United States subjects. […] Similarly, A-002 decreased LDL levels in subjects receiving a variety of non-statin compounds used in the treatment of CVD, including ezetimibe, AEGR-733/ezetimibe, colesevelam hydrochloride (WelChol®), MK-0524A (Cordaptive®), lisinopril/MC-1 antibody (MC-4232), and Angiotensin Receptor Blocker (ARB)/MC-1 (MC-4262).
# [5] = metabolic syndrome subpopulation
# [6] = ITT population, A-002 once a day
# [7] = serum, ITT population, A-002 250 or 500 mg once a day
# [8] = statin subpopulation with baseline serum LDL greater than 70 mg/dl, A-002 once a day
# [9] = statin subpopulation, A-002 once a day
# [10] = diabetic subpopulation, week 8, A-002 twice a day
# [11] = ezetimibe subpopulation (ezetimibe 10 mg), week 8, A-002 twice a day
# [12] = metabolic syndrome subpopulation, week 8, A-002 twice a day
# [13] = non-statin subpopulation with baseline serum LDL greater than or equal to 72 mg/dl, week 8, A-002 twice a day
# [14] = non-statin subpopulation, week 4, A-002 twice a day
# [15] = non-statin subpopulation, week 8, A-002 twice a day
# [16] = serum, ITT population, week 8, A-002 50-500 mg twice a day
# [17] = serum, ITT population, week 8, A-002 twice a day
# [18] = statin subpopulation (US + Ukraine), week 4, A-002 twice a day
# [19] = statin subpopulation (US + Ukraine), week 8, A-002 twice a day
# [20] = statin subpopulation (US), week 8, A-002 twice a day
# [21] = statin subpopulation with baseline serum LDL greater than or equal to 72 mg/dl, week 8, A-002 twice a day
# [22] = subpopulation with baseline serum LDL greater than or equal to 72 mg/dl, week 8, A-002 twice a day
# [23] = summary Table 20, A-002 alone, statin alone or A-002 plus statin
compound,measurement,setting,value
"CCc1c(C(=O)C(N)=O)c2c(OCC(=O)OC)cccc2n1Cc1ccccc1 [A-002, [[3-(2-Amino-1,2-dioxoethyl)-2-ethyl-1-(phenylmethyl)-1H-indol-4-yl]oxy]acetic acid methyl ester]",% change vs. baseline (median [CRP]),[1]; [5],−12.50%
same,Change in median [CRP] vs. baseline,[1]; [5],-0.3 mg/L
same,% change vs. baseline (median [CRP]),"[1]; serum, ITT population",−13.33%
same,Change in median [CRP] vs. baseline,"[1]; serum, ITT population",-0.20 mg/L
same,combined effect of A-002 and statins on LDL levels versus either compound alone,"[2]; A-002 once a day, expected once additional non-statin controls are obtained",synergistic decrease in LDL levels
same,% change vs. baseline (mean LDL particle size),[2]; [6],+0.6%
same,% change vs. baseline (mean [non-HDL cholesterol]),[2]; [6],−9.9%
same,% change vs. baseline (mean [total cholesterol]),[2]; [6],−7.3%
same,% change vs. baseline (median [ApoB]),[2]; [6],−11.9%
same,% change vs. baseline (median [TG]),[2]; [6],−9.8%
same,% change vs. baseline (median [oxidized LDL]),[2]; [6],−3.6%
same,% change vs. baseline (median [small LDL particle]),[2]; [6],−9.1%
same,Change in mean LDL particle size vs. baseline,[2]; [6],+0.11 nm
same,Change in mean [non-HDL cholesterol] vs. baseline,[2]; [6],-10.5 mg/dL
same,Change in mean [total cholesterol] vs. baseline,[2]; [6],-11.5 mg/dL
same,Change in median [ApoB] vs. baseline,[2]; [6],-8.1 mg/dL
same,Change in median [TG] vs. baseline,[2]; [6],-13.0 mg/dL
same,Change in median [oxidized LDL] vs. baseline,[2]; [6],−1.4 U/L
same,Change in median [small LDL particle] vs. baseline,[2]; [6],-74.0 nmol/L
same,% change vs. baseline (mean [LDL]),[2]; [7],−8.3%
same,Change in mean [LDL] vs. baseline,[2]; [7],-7.1 mg/dL
same,% change vs. baseline (mean LDL particle size),[2]; [8],+1.0%
same,% change vs. baseline (mean [LDL]),[2]; [8],−15.0%
same,% change vs. baseline (mean [non-HDL cholesterol]),[2]; [8],−13.7%
same,% change vs. baseline (mean [total cholesterol]),[2]; [8],−10.5%
same,% change vs. baseline (median [ApoB]),[2]; [8],−18.7%
same,% change vs. baseline (median [oxidized LDL]),[2]; [8],−5.6%
same,% change vs. baseline (median [small LDL particle]),[2]; [8],−12.3%
same,Change in mean LDL particle size vs. baseline,[2]; [8],+0.19 nm
same,Change in mean [LDL] vs. baseline,[2]; [8],-13.9 mg/dL
same,Change in mean [non-HDL cholesterol] vs. baseline,[2]; [8],-16.7 mg/dL
same,Change in mean [total cholesterol] vs. baseline,[2]; [8],-18.0 mg/dL
same,Change in median [ApoB] vs. baseline,[2]; [8],-13.1 mg/dL
same,Change in median [oxidized LDL] vs. baseline,[2]; [8],−2.8 U/L
same,Change in median [small LDL particle] vs. baseline,[2]; [8],-115.0 nmol/L
same,% change vs. baseline (mean LDL particle size),[2]; [9],+0.5%
same,% change vs. baseline (mean [LDL]),[2]; [9],−8.2%
same,% change vs. baseline (mean [non-HDL cholesterol]),[2]; [9],−9.9%
same,% change vs. baseline (mean [total cholesterol]),[2]; [9],−7.3%
same,% change vs. baseline (median [ApoB]),[2]; [9],−11.9%
same,% change vs. baseline (median [TG]),[2]; [9],−10.9%
same,% change vs. baseline (median [oxidized LDL]),[2]; [9],−2.9%
same,% change vs. baseline (median [small LDL particle]),[2]; [9],−8.2%
same,Change in mean LDL particle size vs. baseline,[2]; [9],+0.10 nm
same,Change in mean [LDL] vs. baseline,[2]; [9],-6.7 mg/dL
same,Change in mean [non-HDL cholesterol] vs. baseline,[2]; [9],-10.1 mg/dL
same,Change in mean [total cholesterol] vs. baseline,[2]; [9],-11.2 mg/dL
same,Change in median [ApoB] vs. baseline,[2]; [9],-7.9 mg/dL
same,Change in median [TG] vs. baseline,[2]; [9],-13.0 mg/dL
same,Change in median [oxidized LDL] vs. baseline,[2]; [9],−1.1 U/L
same,Change in median [small LDL particle] vs. baseline,[2]; [9],-66.0 nmol/L
same,Body weight increase over the 16 week test period,[3]; 30 mg/kg A-002 twice a day,~150%
same,Body weight increase over the 16 week test period,[3]; 90 mg/kg A-002 twice a day,~141%
same,reduction (decrease) of mean serum small LDL particle levels,"[4]; at eight weeks, United States population, text restating Tables 14 and 17",3.25%
same,decrease of mean serum LDL levels,"[4]; at eight weeks, United States subjects with baseline LDL of 72 mg/dl or greater, text restating Tables 15 and 19",8.23%
same,decrease of mean serum LDL levels,"[4]; at week eight, combined United States and Ukraine populations, Tables 16 and 18",4.22%
same,decrease of mean serum LDL levels,"[4]; at week four, combined United States and Ukraine populations, Tables 16 and 18",6.93%
same,% change vs. baseline (mean [LDL]),[4]; [10],−16.64%
same,Change in mean [LDL] vs. baseline,[4]; [10],-10.6 mg/dL
same,% change vs. baseline (mean [LDL]),[4]; [11],−17.8%
same,Change in mean [LDL] vs. baseline,[4]; [11],-15.4 mg/dL
same,% change vs. baseline (median [TG]),[4]; [12],−13.99%
same,Change in median [TG] vs. baseline,[4]; [12],-24.0 mg/dL
same,% change vs. baseline (mean [LDL]),[4]; [13],−8.23%
same,Change in mean [LDL] vs. baseline,[4]; [13],-9.2 mg/dL
same,% change vs. baseline (mean [LDL]),[4]; [14],−6.93%
same,Change in mean [LDL] vs. baseline,[4]; [14],-8.7 mg/dL
same,% change vs. baseline (mean [LDL]),[4]; [15],−4.22%
same,% change vs. baseline (mean [small LDL particle]),[4]; [15],−3.25%
same,Change in mean [LDL] vs. baseline,[4]; [15],-5.3 mg/dL
same,Change in mean [small LDL particle] vs. baseline,[4]; [15],-24.0 nmol/L
same,% change vs. baseline (mean [LDL]),[4]; [16],−10.68%
same,Change in mean [LDL] vs. baseline,[4]; [16],-8.2 mg/dL
same,% change vs. baseline (mean [LDL particle]),[4]; [17],−7.13%
same,% change vs. baseline (mean [TG]),[4]; [17],−6.67%
same,% change vs. baseline (mean [small LDL particle]),[4]; [17],−8.33%
same,% change vs. baseline (mean [total cholesterol]),[4]; [17],−8.16%
same,Change in mean [LDL particle] vs. baseline,[4]; [17],-73.6 nmol/L
same,Change in mean [TG] vs. baseline,[4]; [17],-10.1 mg/dL
same,Change in mean [small LDL particle] vs. baseline,[4]; [17],-61.3 nmol/L
same,Change in mean [total cholesterol] vs. baseline,[4]; [17],-12.8 mg/dL
same,% change vs. baseline (mean [LDL]),[4]; [18],−14.04%
same,Change in mean [LDL] vs. baseline,[4]; [18],-10.8 mg/dL
same,% change vs. baseline (mean [LDL]),[4]; [19],−12.48%
same,Change in mean [LDL] vs. baseline,[4]; [19],-9.6 mg/dL
same,% change vs. baseline (mean [small LDL particle]),[4]; [20],−9.00%
same,Change in mean [small LDL particle] vs. baseline,[4]; [20],-66.2 nmol/L
same,% change vs. baseline (mean [LDL]),[4]; [21],−16.27%
same,Change in mean [LDL] vs. baseline,[4]; [21],-15.0 mg/dL
same,LDL levels in subjects receiving non-statin compounds used in the treatment of CVD,"[4]; subjects on ezetimibe, AEGR-733/ezetimibe, colesevelam hydrochloride, MK-0524A, MC-4232 or MC-4262",decreased
same,% change vs. baseline (mean [LDL]),[4]; [22],−14.68%
same,Change in mean [LDL] vs. baseline,[4]; [22],-14.0 mg/dL
same,Observed change following administration: Mean serum [LDL] at week 4,[4]; [23],−6.93%
same,Observed change following administration: Mean serum [LDL] at week 8,[4]; [23],−4.22%
same,Observed change following administration: Mean serum [LDL] in ≧72 mg/dl subpopulation at week 8,[4]; [23],−8.23%
same,Observed change following administration: Mean serum [small LDL particle] at week 8,[4]; [23],−3.25%
same,Observed change following administration: Mean serum [LDL] at week 8,"[4]; summary Table 22, A-002 alone, ezetimibe alone or A-002 plus ezetimibe",−4.22%
